Source: ChEMBL document CHEMBL1133973, “Asymmetric synthesis of BB-3497--a potent peptide deformylase inhibitor” (Bioorg Med Chem Lett, 2001)

Columns and labels:
[1] = target: 72 kDa type IV collagenase (Homo sapiens, UniProt P08253); experiment: Inhibition of Matrix metalloprotease-2
[2] = target: T1, Matrilysin (Homo sapiens, UniProt P09237); experiment: (§1) Inhibition of Matrix metalloprotease-7
T1 sequence (P09237 whole entry): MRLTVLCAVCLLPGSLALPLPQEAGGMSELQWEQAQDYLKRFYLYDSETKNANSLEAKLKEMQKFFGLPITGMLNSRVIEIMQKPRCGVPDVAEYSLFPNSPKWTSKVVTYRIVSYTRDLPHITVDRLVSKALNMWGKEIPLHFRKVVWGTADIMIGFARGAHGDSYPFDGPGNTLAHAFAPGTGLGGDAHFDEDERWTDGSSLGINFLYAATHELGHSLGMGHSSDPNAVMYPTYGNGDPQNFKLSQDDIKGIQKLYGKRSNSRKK

[3] = target: Stromelysin-1 (Homo sapiens, UniProt P08254); experiment: Inhibition of Matrix metalloprotease-3
Chain of Stromelysin-1 (P08254 whole entry): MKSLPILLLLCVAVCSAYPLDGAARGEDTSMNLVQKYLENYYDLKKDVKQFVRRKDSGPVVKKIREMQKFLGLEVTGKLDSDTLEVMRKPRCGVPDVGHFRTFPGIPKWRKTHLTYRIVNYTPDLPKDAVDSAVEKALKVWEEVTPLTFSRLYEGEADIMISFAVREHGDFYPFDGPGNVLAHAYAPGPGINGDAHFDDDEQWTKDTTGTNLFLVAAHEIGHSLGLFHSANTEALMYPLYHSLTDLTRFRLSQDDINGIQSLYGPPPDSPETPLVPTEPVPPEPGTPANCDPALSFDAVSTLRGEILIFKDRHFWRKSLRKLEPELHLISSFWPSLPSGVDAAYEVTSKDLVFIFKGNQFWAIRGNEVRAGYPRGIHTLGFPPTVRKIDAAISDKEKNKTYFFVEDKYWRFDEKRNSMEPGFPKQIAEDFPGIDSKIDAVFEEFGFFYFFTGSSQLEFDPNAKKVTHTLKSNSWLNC

[4] = target: T2, Interstitial collagenase (Homo sapiens, UniProt P03956); experiment: Inhibition of human Matrix metalloprotease-1
T2 sequence (P03956 whole entry): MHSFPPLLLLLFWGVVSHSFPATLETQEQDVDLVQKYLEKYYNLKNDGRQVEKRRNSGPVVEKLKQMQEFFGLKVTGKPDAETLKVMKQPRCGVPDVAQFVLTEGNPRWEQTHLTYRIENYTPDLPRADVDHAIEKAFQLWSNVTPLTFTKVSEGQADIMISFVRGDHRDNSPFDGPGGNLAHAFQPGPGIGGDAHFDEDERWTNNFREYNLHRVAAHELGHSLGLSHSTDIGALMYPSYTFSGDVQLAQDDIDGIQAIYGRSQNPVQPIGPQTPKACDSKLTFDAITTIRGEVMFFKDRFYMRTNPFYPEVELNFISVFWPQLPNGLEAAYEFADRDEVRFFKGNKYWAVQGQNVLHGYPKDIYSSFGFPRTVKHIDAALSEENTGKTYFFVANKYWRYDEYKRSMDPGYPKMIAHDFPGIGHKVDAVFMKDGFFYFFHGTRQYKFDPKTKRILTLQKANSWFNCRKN

[5] = target: T3, Matrilysin (Homo sapiens) (UniProt P09237); experiment: as §1; conditions: concentration not given here
T3 sequence (whole entry): T1 sequence (P09237 whole entry)

[6] = target: Angiotensin-converting enzyme (Homo sapiens, UniProt P12821); experiment: Compound was tested for its inhibitory activity against Angiotensin I converting enzyme
Chain of Angiotensin-converting enzyme (P12821 whole entry): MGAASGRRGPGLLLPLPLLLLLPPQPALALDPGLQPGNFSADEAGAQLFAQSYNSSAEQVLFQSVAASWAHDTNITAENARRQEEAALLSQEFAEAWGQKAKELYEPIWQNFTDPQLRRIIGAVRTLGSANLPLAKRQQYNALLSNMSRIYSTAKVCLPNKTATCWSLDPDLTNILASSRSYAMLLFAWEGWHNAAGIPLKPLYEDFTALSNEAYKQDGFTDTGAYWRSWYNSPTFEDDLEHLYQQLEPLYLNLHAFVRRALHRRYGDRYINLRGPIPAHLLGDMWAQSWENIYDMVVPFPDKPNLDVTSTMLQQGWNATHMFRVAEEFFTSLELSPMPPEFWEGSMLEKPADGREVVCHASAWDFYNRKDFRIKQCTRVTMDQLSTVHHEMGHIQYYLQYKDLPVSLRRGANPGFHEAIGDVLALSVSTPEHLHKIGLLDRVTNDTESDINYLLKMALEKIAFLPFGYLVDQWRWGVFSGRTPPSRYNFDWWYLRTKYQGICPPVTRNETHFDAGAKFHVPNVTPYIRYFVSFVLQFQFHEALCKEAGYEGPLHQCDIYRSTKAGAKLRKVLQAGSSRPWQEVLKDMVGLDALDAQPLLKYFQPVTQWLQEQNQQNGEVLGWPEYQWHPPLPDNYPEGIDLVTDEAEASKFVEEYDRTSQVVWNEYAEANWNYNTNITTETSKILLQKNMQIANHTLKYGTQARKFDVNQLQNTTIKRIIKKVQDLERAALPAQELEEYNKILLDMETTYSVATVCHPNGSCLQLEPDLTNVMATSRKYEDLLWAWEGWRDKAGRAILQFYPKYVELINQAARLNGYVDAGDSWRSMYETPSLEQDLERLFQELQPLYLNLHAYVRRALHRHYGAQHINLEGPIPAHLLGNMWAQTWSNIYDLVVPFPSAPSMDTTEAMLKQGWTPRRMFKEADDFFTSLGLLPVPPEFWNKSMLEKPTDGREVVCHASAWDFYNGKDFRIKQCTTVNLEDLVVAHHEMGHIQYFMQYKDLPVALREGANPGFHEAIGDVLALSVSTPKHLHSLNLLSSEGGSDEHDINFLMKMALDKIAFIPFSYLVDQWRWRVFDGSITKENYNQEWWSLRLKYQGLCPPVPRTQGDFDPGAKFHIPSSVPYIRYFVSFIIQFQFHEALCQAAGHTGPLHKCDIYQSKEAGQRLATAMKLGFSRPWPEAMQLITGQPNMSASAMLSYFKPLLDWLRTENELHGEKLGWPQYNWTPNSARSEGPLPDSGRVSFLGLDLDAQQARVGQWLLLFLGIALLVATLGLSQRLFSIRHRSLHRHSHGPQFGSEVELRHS

[7] = target: Neprilysin (Homo sapiens, UniProt P08473); experiment: The compound was evaluated in vitro for the inhibition of Neutral endopeptidase
Chain of Neprilysin (P08473 whole entry): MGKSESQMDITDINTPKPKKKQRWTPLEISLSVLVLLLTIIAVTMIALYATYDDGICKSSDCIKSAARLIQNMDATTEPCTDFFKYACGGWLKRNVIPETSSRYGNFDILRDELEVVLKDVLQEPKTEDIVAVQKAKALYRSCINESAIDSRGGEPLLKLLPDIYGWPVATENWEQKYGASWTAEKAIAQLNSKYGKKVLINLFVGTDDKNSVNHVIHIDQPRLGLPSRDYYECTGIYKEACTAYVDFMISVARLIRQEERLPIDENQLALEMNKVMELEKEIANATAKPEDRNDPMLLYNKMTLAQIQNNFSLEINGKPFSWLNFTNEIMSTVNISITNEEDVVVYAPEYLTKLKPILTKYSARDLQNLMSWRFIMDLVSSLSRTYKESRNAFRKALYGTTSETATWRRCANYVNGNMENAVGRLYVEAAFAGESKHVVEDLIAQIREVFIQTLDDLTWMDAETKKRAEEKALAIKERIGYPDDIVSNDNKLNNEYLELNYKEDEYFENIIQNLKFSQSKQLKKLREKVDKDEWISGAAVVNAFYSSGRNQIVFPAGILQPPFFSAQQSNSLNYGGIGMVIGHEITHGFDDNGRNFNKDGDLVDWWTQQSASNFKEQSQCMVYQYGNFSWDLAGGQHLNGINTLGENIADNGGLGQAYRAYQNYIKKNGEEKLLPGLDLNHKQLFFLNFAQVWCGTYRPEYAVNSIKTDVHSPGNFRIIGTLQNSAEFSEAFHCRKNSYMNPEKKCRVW

Chain of 72 kDa type IV collagenase (P08253 whole entry): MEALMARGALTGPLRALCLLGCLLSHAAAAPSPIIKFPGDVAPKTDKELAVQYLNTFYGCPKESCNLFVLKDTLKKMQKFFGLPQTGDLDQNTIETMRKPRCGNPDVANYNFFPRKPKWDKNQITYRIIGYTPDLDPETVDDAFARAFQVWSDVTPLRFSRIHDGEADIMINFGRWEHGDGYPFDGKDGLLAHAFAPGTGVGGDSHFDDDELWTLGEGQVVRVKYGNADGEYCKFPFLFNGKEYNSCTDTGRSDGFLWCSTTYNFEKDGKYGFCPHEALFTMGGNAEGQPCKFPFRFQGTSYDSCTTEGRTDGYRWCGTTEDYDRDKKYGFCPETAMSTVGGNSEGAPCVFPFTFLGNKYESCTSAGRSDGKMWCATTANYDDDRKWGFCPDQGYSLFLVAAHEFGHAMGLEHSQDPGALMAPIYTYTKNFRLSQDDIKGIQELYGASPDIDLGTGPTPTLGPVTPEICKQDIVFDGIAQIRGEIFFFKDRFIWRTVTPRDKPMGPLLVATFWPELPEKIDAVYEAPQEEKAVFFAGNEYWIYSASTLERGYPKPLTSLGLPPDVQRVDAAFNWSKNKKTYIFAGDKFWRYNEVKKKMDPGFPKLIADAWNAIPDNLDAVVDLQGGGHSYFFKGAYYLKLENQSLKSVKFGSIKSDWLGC

Row | IC50 [1] [µM] | IC50 [2] [µM] | IC50 [3] [µM] | IC50 [4] [µM] | inhibition [5] [%] | IC50 [6] [µM] | IC50 [7] [µM] | Structure (SMILES)
1 | > 100 | > 100 | > 100 | > 100 | – | – | – | CCCCC(CN(O)C=O)C(=O)N[C@H](C(=O)N(C)C)C(C)(C)C (stereo partly specified)
2 | 3 | – | 6 | 1.1 | 60 | > 100 | 6.7 | CCCCC[C@H](CC(=O)NO)C(=O)N[C@H](C(=O)N1CCC[C@H]1CO)C(C)C [ACTINONIN]
3 | 15 | > 100 | > 100 | 2 | – | > 100 | 50 | CCCC[C@H](CN(O)C=O)C(=O)N[C@H](C(=O)N(C)C)C(C)(C)C
